# Test results: patent US20240391931A1 (Bristol-Myers Squibb Company, priority 2021, published 2024)
# Assays:
# HER2VC (G776delinsVC) = biological target: T1, HER2VC (G776delinsVC) (Homo sapiens, UniProt P04626, G776C/INS775V); experiment: HER2 signaling (pHER2) in NCI-H1781 cells; type: cell-based; conditions: 1.5 hr compound, 1% FBS
# T1 construct: NCI-H1781 cells which endogenously expresses a HER2 mutant protein; endogenous in cells; host or cells: NCI-H1781
# Experimental: (§1) In addition to the engineered cell lines, the following cell lines were used: BT474 (human breast carcinoma), N87 (human gastric carcinoma), NCI-H1781 (human lung adenocarcinoma), and A431 (human epidermoid carcinoma); all cell lines were obtained from the American Type Culture Collection (ATCC, Manassas, VA). NCI-H1781 were grown in complete RPMI 1640 (Life Technologies, Carlsbad, CA) supplemented with 15% fetal bovine serum (FBS, Life Technologies, Carlsbad, CA) and 1% Penicillin-Streptomycin (P/S, Life Technologies, Carlsbad, CA). N87 cells were grown in complete RPMI 1640 supplemented with 10% FBS and 1% P/S. BT474 and A431 cells were grown in DMEM (Life Technologies, Carlsbad, CA) supplemented with 10% FBS and 1% P/S. All cells were maintained and propagated in a humidified 5% CO2 incubator at 37° C.
# HER2 signaling was assessed in BT474 and N87 cell lines which endogenously overexpress the HER2 wildtype (WT) protein, in NCI-H1781 cells which endogenously expresses a HER2 mutant protein containing a VC insertion in the kinase domain (HER2VC or G776delinsVC), and in engineered cell lines transduced to express the Her2 mutant protein containing the YVMA insertion (Hek293-HER2YVMA and BEAS2B-HER2YVMA).
# BT474, N87, and NCI-H1781 were plated in 96-well tissue-culture treated plates (Corning Costar, Sigma-Aldrich) in full media and incubated overnight. Hek293-HER2YVMA and BEAS2B-HER2YVMA cells were plated in 96-well poly-D-lysine treated plates (BD Bioscience, San Jose, CA). For treatment with test compounds, the media was replaced with corresponding low serum media (1% FBS) containing test compound at 1.1, 0.37, 0.12, 0.041, 0.014, 0.005, 0.0014, 0.0005 μM or DMSO control (0.1%). Cells were incubated with compound for 1.5 hr at 37° C. After compound treatment, the media was removed and cells were lysed for 30 min on ice in complete MSD lysis buffer (prepared using MSD base lysis buffer (Meso-Scale Discovery) supplemented with cOmplete, EDTA-free Protease inhibitor cocktail (Roche), Phosphatase Inhibitor Cocktails 2 and 3 (Sigma-Aldrich), and 1 mM PMSF (Sigma-Aldrich)). Lysates were stored at −70° C. until further analysis.
# HER2 signaling was evaluated using phospho (Tyr1248)/total ErbB2 whole cell lysate MSD plates (Meso-Scale Discovery, Gaithersburg, MD). The phospho HER2 signal was normalized to total HER2 for each sample; results are reported as % DMSO control. The normalized data was fitted using a sigmoidal curve analysis program (Graph Pad Prism version 6) with variable Hill slope to determine EC50 values.
# The HER2 signaling results are provided in Table 4, under columns titled “BT474-pHER2 EC50”, “N87-pHER2 EC50”, and “NCI-H1781-pHER2 EC50”. Hek293-HER2YVMA ins fall under the heading “HEKYVMA-pHER2 EC50”, Ba/F3 HER2YVMA fall under the heading “Ba/F3 YVMA-pHER2 EC50” and BEAS2B-HER2YVMA fall under the heading “BEAS2B YVMA-pHER2 EC50”.
# EGFR = EGFR (Homo sapiens, UniProt P00533); experiment: EGFR signaling (pEGFR Tyr1068/total EGFR MSD) in A431 cells; type: cell-based; design: endogenous in cells; host or cells: A431, N87; conditions: for EC50: A431 cells, read-out: A431 pEGFR EC50; for Selectivity A431 EC50/BT474 EC50: ratio A431 pEGFR EC50 to BT474 pHER2 EC50; for Selectivity A431 EC50/HEKYVMA EC50: ratio A431 pEGFR EC50 to HEK YVMA pHER2 EC50
# Method in brief: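 Serum-starved A431 cells were pretreated 1.5 h in 1% FBS with compound (0.005–10 μM, 0.1% DMSO), then stimulated with 100 ng/mL human EGF for 10 min. Lysate pEGFR Tyr1068 was measured by MSD and normalized to total EGFR as % DMSO control; EC50 from variable-slope sigmoidal fit.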
# BT474 cells = experiment: Cellular proliferation in BT474 cells (CellTiter Glo); type: cell-based, human; conditions: Homo sapiens, BT-474, BT474 cells, 120 h, redosed after 72 h
# Experimental: as §1
# (§2) Cell proliferation in adherent cells was investigated in two HER2 amplified cell lines (BT474, N87), and a HER2VC expressing cell line (NCI-H1781). BT474, NCI-H1781, and N87 were plated in their appropriate growth media supplemented with either 10% FBS (BT474, N87) or 15% FBS (NCI-H1781) and 1% P/S in 96-well white clear-bottom tissue culture plates (Costar, Sigma-Aldrich). The starting cell densities were 3500, 5500, and 5000 cells for BT474, NCI-H1781, and N87 cells, respectively. An 8-point standard curve with varying cell densities (starting at 50000 cells and serially diluting down 2-fold) was prepared for each cell line and read 6 h after plating. Cells were allowed to attach overnight prior to compound treatment. Compound solutions were prepared by serially diluting test compounds in DMSO (Sigma-Aldrich), then diluting 500× in their corresponding serum free media. Cells were treated by adding a 1:1 volume of test compound to a final concentration of […], 0.004, 0.0014, or 0.0005 μM, in 0.1% DMSO and 5% FBS (for BT474 and N87) or 7.5% FBS (NCI-H1781). In BT474 and NCI-H1781, cell media was replaced and cells were redosed with fresh test compound solutions after 72 h. Viability was determined by CellTiter Glo (Promega, Madison, WI) after 72 h for N87 cells, and after 120 h for BT474 and […] cells. The results were converted to cell numbers using a standard curve; growth inhibition (GI50 values) were determined by Graph Pad Prism. […] The results are provided in Table 4, under columns titled “BT474-GI50”, “N87-GI50”, and “NCI-H1781-GI50”.
# N87 cells = experiment: Cellular proliferation in N87 cells (CellTiter Glo); type: cell-based, human; conditions: Homo sapiens, 72 h
# Experimental: as §1, §2
# Chain of EGFR (P00533 25-1210): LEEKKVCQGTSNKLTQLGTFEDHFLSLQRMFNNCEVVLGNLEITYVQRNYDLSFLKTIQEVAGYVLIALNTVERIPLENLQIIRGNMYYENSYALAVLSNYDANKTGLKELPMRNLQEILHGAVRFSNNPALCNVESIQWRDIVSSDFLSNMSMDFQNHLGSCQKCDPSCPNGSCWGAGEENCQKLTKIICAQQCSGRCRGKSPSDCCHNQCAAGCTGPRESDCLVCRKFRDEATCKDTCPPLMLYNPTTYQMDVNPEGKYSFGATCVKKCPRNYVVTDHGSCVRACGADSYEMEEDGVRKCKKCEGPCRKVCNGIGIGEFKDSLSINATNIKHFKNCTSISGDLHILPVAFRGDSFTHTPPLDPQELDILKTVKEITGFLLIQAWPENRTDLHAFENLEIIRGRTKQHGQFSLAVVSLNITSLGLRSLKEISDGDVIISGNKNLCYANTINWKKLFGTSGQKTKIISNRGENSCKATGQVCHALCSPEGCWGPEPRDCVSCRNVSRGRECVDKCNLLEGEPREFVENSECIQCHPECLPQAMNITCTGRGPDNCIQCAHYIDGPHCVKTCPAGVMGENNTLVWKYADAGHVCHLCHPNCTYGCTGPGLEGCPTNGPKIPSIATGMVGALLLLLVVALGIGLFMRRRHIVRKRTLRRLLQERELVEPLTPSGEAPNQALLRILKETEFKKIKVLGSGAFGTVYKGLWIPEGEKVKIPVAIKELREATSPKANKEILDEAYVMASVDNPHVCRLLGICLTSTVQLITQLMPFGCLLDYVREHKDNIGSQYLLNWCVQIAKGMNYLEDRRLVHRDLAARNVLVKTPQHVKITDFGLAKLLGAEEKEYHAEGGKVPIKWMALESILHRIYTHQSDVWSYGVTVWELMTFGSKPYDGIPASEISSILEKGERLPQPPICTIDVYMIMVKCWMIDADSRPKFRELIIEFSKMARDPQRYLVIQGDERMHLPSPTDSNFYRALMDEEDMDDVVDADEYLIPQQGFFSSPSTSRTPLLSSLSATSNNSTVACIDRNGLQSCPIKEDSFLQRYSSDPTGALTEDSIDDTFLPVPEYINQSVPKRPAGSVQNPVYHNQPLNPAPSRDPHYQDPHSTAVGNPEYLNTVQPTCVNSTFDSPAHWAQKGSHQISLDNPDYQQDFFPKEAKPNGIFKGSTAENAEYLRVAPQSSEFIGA
# T1 sequence (P04626 with tags, fused parts or gaps INS775V/G776C): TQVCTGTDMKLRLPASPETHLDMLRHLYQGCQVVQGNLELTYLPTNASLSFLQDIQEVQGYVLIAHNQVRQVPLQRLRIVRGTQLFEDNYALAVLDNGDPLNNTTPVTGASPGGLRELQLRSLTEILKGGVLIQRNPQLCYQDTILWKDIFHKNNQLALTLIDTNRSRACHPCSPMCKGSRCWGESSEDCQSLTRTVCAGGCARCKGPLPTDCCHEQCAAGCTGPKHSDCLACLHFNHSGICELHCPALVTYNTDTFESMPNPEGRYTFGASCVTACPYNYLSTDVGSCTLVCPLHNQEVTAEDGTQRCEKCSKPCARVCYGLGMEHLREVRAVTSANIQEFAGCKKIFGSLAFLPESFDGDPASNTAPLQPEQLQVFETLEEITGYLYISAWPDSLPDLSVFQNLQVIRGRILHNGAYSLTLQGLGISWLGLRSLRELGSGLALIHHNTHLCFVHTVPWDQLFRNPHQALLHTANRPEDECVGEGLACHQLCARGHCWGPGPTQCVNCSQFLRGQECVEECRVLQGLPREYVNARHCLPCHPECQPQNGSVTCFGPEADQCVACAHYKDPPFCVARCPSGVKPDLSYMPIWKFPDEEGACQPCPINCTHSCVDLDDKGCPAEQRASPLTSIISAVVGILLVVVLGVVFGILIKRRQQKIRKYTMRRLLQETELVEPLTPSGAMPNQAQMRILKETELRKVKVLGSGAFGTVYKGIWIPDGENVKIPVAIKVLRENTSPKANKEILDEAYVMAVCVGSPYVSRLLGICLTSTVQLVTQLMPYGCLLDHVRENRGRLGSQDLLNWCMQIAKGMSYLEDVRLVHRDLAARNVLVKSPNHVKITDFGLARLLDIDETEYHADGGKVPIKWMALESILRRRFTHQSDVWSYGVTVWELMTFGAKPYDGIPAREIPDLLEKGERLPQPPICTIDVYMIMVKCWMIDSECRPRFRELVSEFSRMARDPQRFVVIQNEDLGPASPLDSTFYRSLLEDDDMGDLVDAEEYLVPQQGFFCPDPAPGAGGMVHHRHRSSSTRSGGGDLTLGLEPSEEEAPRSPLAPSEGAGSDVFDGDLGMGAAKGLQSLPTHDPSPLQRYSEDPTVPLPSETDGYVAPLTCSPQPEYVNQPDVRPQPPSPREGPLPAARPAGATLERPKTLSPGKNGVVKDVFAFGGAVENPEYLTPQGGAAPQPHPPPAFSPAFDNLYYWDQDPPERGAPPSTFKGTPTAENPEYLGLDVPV
Structure (SMILES),EC50 (HER2VC (G776delinsVC)),EC50 (EGFR),Selectivity A431 EC50/BT474 EC50 (EGFR),Selectivity A431 EC50/HEKYVMA EC50 (EGFR),GI50 (BT474 cells),GI50 (N87 cells)
"Cc1ccc(Oc2ccc(Nc3ncnc4sc5c(c34)C(C)CN(C(=O)C=CCN3CCOCC3)C5)cc2C)cn1 (single isomer, unassigned) [Compound 177]",< 0.1 µM,0.1 to 1 µM,C (C: ≥ 10 and < 20),D (D: ≥ 5 and < 10),–,–
"C=CC(=O)N1CCc2c(sc3ncnc(Nc4ccc(Oc5cccnc5)c(Cl)c4)c23)C1 [Compound 6, 1-(4-((3-chloro-4-(pyridin-3-yloxy)phenyl)amino)-5,8-dihydropyrido[4′,3′:4,5]thieno[2,3-d]pyrimidin-7(6H)-yl)prop-2-en-1-one]",< 0.1 µM,< 0.1 µM,E (E: >1 and < 5),E (E: >1 and < 5),–,–
"Cc1ccc(Oc2ccc(Nc3ncnc4sc5c(c34)CN(C(=O)/C=C/CN(C)C)CC5)cc2C)cn1 [Compound 108, (E)-4-(Dimethylamino)-1-(4-((3-methyl-4-((6-methylpyridin-3-yl)oxy)phenyl)amino)-7,8-dihydropyrido[3′,4′:4,5]thieno[2,3-d]pyrimidin-6(5H)-yl)but-2-en-1-one]",–,< 0.1 µM,C (C: ≥ 10 and < 20),C (C: ≥ 10 and < 20),< 0.1 µM,< 0.1 µM
Cc1ccc(Oc2ccc(Nc3ncnc4sc5c(c34)CCN(C(=O)/C=C/CN3CCC(O)C(C)(C)C3)C5)cc2C)cn1 (stereo not shown) [Compound 114],–,0.1 to 1 µM,B (B: ≥ 20 and < 100),B (B: ≥ 20 and < 100),< 0.1 µM,< 0.1 µM
Cc1ccc(Oc2ccc(Nc3ncnc4sc5c(c34)CCN(C(=O)/C=C/CN3CC4CC4(CO)C3)C5)cc2C)cn1 (stereo not shown) [Compound 118],–,0.1 to 1 µM,A (A: ≥100),B (B: ≥ 20 and < 100),< 0.1 µM,< 0.1 µM
Cc1ccc(Oc2ccc(Nc3ncnc4sc5c(c34)CCN(C(=O)/C=C/CN3CC[C@H](F)C3)C5)cc2C)cn1 [Compound 124],–,< 0.1 µM,B (B: ≥ 20 and < 100),C (C: ≥ 10 and < 20),< 0.1 µM,< 0.1 µM
"Cc1cc(Nc2ncnc3sc4c(c23)CCN(C(=O)/C=C/CN(C)C)C4)ccc1Oc1ccn2ccnc2c1 [Compound 126, (E)-4-(dimethylamino)-1-(4-((4-(imidazo[1,2-a]pyridin-7-yloxy)-3-methylphenyl)amino)-5,8-dihydropyrido[4′,3′:4,5]thieno[2,3-d]pyrimidin-7(6H)-yl)but-2-en-1-one]",–,0.1 to 1 µM,B (B: ≥ 20 and < 100),B (B: ≥ 20 and < 100),< 0.1 µM,< 0.1 µM
"Cc1nc2cc(Oc3ccc(Nc4ncnc5sc6c(c45)CCN(C(=O)/C=C/CN(C)C)C6)cc3C)ccn2n1 [Compound 127, (E)-4-(dimethylamino)-1-(4-((3-methyl-4-((2-methyl-[1,2,4]triazolo[1,5-a]pyridin-7-yl)oxy)phenyl)amino)-5,6-dihydropyrido[4′,3′:4,5]thieno[2,3-d]pyrimidin-7(8H)-yl)but-2-en-1-one]",–,1 to 10 µM,A (A: ≥100),B (B: ≥ 20 and < 100),< 0.1 µM,< 0.1 µM
"Cc1cc(Nc2ncnc3sc4c(c23)CN(C(=O)/C=C/CN(C)C)C4)ccc1Oc1ccn2ncnc2c1 [Compound 130, (E)-1-(4-((4-([1,2,4]Triazolo[1,5-a]pyridin-7-yloxy)-3-methylphenyl)amino)-5H-pyrrolo[3′,4′:4,5]thieno[2,3-d]pyrimidin-6(7H)-yl)-4-(dimethylamino)but-2-en-1-one]",–,1 to 10 µM,A (A: ≥100),A (A: ≥100),< 0.1 µM,< 0.1 µM
Cc1cc(Nc2ncnc3sc4c(c23)CCN(C(=O)/C=C/CN(C)C)CC4)ccc1Oc1ccn2ncnc2c1 [Compound 168],–,1 to 10 µM,A (A: ≥100),B (B: ≥ 20 and < 100),–,–
"Cc1ccc(Oc2ccc(Nc3ncnc4sc5c(c34)C(C)CN(C(=O)/C=C/CN(C)C)C5)cc2Cl)cn1 (stereo not shown) [Compound 171, (E)-1-(4-((3-Chloro-4-((6-methylpyridin-3-yl)oxy)phenyl)amino)-5-methyl-5,6-dihydropyrido[4′,3′:4,5]thieno[2,3-d]pyrimidin-7(8H)-yl)-4-(dimethylamino)but-2-en-1-one]",–,< 0.1 µM,A (A: ≥100),E (E: >1 and < 5),–,–
"Cc1cc(Nc2ncnc3sc4c(c23)CCN(C(=O)/C=C/CN(C)C)CC4)ccc1Oc1ccn2ccnc2c1 [Compound 172, (E)-4-(Dimethylamino)-1-(4-((4-(imidazo[1,2-a]pyridin-7-yloxy)-3-methylphenyl)amino)-8,9-dihydro-5H-pyrimido[5′,4′:4,5]thieno[2,3-d]azepin-7(6H)-yl)but-2-en-1-one]",–,1 to 10 µM,B (B: ≥ 20 and < 100),C (C: ≥ 10 and < 20),–,–
"COc1ccc(Oc2ccc(Nc3ncnc4sc5c(c34)CCN(C(=O)/C=C/CN(C)C)CC5)cc2C)cn1 [Compound 173, (E)-4-(Dimethylamino)-1-(4-((4-((6-methoxypyridin-3-yl)oxy)-3-methylphenyl)amino)-8,9-dihydro-5H-pyrimido[5′,4′:4,5]thieno[2,3-d]azepin-7(6H)-yl)but-2-en-1-one]",–,1 to 10 µM,B (B: ≥ 20 and < 100),C (C: ≥ 10 and < 20),–,–
Cc1ccc(Oc2ccc(Nc3ncnc4sc5c(c34)C(C)CN(C(=O)/C=C/CN(C)C(C)(C)C)C5)cc2C)cn1 (stereo not shown) [Compound 175],–,< 0.1 µM,C (C: ≥ 10 and < 20),E (E: >1 and < 5),–,–
